Reference: ChEMBL document CHEMBL1201862, “PubChem BioAssay data set” (2004)
Values joined by “and” are separate entries in the source; they are usually repeats but may differ in a detail not shown here. Identical values can stand only once.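 48-hour exposure; five concentrations; linearly interpolated endpoints. GI50 is the concentration that inhibits growth by half.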 Active and inactive are the calls of the source. Rule as the data show it: active = GI50 up to about 1.1 µM and inactive = higher.

What was measured:
Assay in all cases: growth of human tumour cells (NCI), 48 h
[1] = tested on: SR
[2] = tested on: SK-MEL-28
[3] = tested on: HCT-116
[4] = tested on: Hs-578T
[5] = tested on: ACHN
[6] = tested on: SN12C
[7] = tested on: TK-10
[8] = tested on: M14
[9] = tested on: SNB-75
[10] = tested on: T47D
[11] = tested on: SNB-19
[12] = tested on: LOX IMVI
[13] = tested on: OVCAR-8
[14] = tested on: SK-OV-3
[15] = tested on: MDA-N
[16] = tested on: DMS-114
[17] = tested on: Malme-3M
[18] = tested on: HL-60
[19] = tested on: OVCAR-5
[20] = tested on: OVCAR-3

Which results are given for `Cc1c2cnccc2c(C)c2c1c1ccccc1n2CCOC(=O)c1ccccc1`?
GI50 [1]: 17.5 µM (inactive); GI50 [2]: 15.2 µM (inactive); GI50 [3]: 5.41 µM (inactive); GI50 [4]: 30.1 µM (inactive); GI50 [5]: 4.74 µM (inactive); GI50 [6]: 2.52 µM (inactive); GI50 [7]: 11.2 µM (inactive); GI50 [8]: 26.7 µM (inactive); GI50 [9]: 22.9 µM (inactive); GI50 [10]: 30 µM (inactive); GI50 [11]: 10.7 µM (inactive); GI50 [12]: 8.38 µM (inactive); GI50 [13]: 6.55 µM (inactive); GI50 [14]: 5.33 µM (inactive); GI50 [15]: 17.6 µM (inactive); GI50 [16]: 9.51 µM (inactive); GI50 [17]: 11.5 µM (inactive); GI50 [18]: 5.85 µM (inactive); GI50 [19]: 14.4 µM (inactive); GI50 [20]: 12.2 µM (inactive)

Which GI50 [1] does the source give for `CCC(=O)OCOc1ccc(/C=C2\CCC(CN(C)C)C2=O)cc1` (stereo not drawn) here?
Its GI50 is 2.15 µM (inactive).

What about the GI50 [2] of the same compound?
The GI50 was 4.29 µM (inactive).

What about the GI50 [3] of the same compound?
Its GI50 is 2.74 µM (inactive).

And the GI50 [4]?
Its GI50 is 6.27 µM (inactive).

And the GI50 [5]?
Its GI50 is 7.73 µM (inactive).

What about the GI50 [6] of the same compound?
The GI50 was 2.72 µM (inactive).

What about the GI50 [7] of the same compound?
Its GI50 is 9.12 µM (inactive).

And the GI50 [8]?
Its GI50 is 3.42 µM (inactive).

And the GI50 [9]?
Its GI50 is 12.8 µM (inactive).

And the GI50 [10]?
Its GI50 is 3.52 µM (inactive).

What about the GI50 [11] of the same compound?
The GI50 was 16.7 µM (inactive).

And the GI50 [12]?
Its GI50 is 1.94 µM (inactive).

What about the GI50 [13] of the same compound?
Its GI50 is 4.19 µM (inactive).

What about the GI50 [14] of the same compound?
The GI50 was 15.7 µM (inactive).

What about the GI50 [15] of the same compound?
Its GI50 is 5.47 µM (inactive).

What about the GI50 [16] of the same compound?
The GI50 was 18.3 µM (inactive).

What about the GI50 [17] of the same compound?
The GI50 was 3.96 µM (inactive).

What about the GI50 [18] of the same compound?
Its GI50 is 1.36 µM (inactive).

What about the GI50 [19] of the same compound?
The GI50 was 16.8 µM (inactive).

What about the GI50 [20] of the same compound?
Its GI50 is 3.7 µM (inactive).

`O=c1c(Cl)c(Cl)cnn1-c1ccccc1` was tested. Which GI50 [1] did it give?
Its GI50 is 2.14 µM (inactive) and 1.61 µM (inactive).

And the GI50 [2]?
Its GI50 is 3.4 µM (inactive) and 2.3 µM (inactive).

And the GI50 [3]?
The GI50 was 2.29 µM (inactive) and 1.75 µM (inactive).

And the GI50 [4]?
The GI50 was 1.54 µM (inactive) and 2.56 µM (inactive).

What about the GI50 [5] of the same compound?
Its GI50 is 7.11 µM (inactive) and 5.04 µM (inactive).

And the GI50 [6]?
The GI50 was 2.06 µM (inactive) and 3.85 µM (inactive).

What about the GI50 [7] of the same compound?
The GI50 was 15.6 µM (inactive) and 9.33 µM (inactive).

And the GI50 [8]?
Its GI50 is 1.74 µM (inactive) and 1.76 µM (inactive).

What about the GI50 [10] of the same compound?
The GI50 was 4.33 µM (inactive) and 2.44 µM (inactive).

And the GI50 [12]?
Its GI50 is 1.8 µM (inactive) and 1.19 µM (inactive).

What about the GI50 [13] of the same compound?
Its GI50 is 3.85 µM (inactive) and 2.39 µM (inactive).

And the GI50 [15]?
The GI50 was 2.14 µM (inactive) and 1.81 µM (inactive).

And the GI50 [16]?
Its GI50 is 2.33 µM (inactive) and 1.56 µM (inactive).

And the GI50 [17]?
Its GI50 is 3.46 µM (inactive) and 3.02 µM (inactive).

What about the GI50 [18] of the same compound?
The GI50 was 893 nM (active) and 1.09 µM (active).

What about the GI50 [20] of the same compound?
Its GI50 is 2.03 µM (inactive) and 1.99 µM (inactive).

With `Cn1cnc([N+](=O)[O-])c1Sc1nnc(-c2cccnc2)n1C` as the compound, how does the GI50 [1] read?
The GI50 was 15.3 µM (inactive).

What about the GI50 [2] of the same compound?
The GI50 was 17.5 µM (inactive).

And the GI50 [3]?
The GI50 was 18.4 µM (inactive).

And the GI50 [4]?
The GI50 was 34.7 µM (inactive).

And the GI50 [5]?
The GI50 was 17.1 µM (inactive).

And the GI50 [6]?
Its GI50 is 25.4 µM (inactive).

And the GI50 [7]?
Its GI50 is 16.8 µM (inactive).

What about the GI50 [8] of the same compound?
Its GI50 is 16.8 µM (inactive).

What about the GI50 [9] of the same compound?
The GI50 was 58.7 µM (inactive).

What about the GI50 [10] of the same compound?
Its GI50 is 12.6 µM (inactive).

And the GI50 [11]?
The GI50 was > 100 µM (inactive).

And the GI50 [12]?
Its GI50 is 17.8 µM (inactive).

And the GI50 [13]?
The GI50 was 21.3 µM (inactive).

What about the GI50 [14] of the same compound?
Its GI50 is > 100 µM (inactive).

And the GI50 [15]?
Its GI50 is 19.5 µM (inactive).

And the GI50 [16]?
Its GI50 is 18.9 µM (inactive).

And the GI50 [17]?
Its GI50 is 15.5 µM (inactive).

What about the GI50 [18] of the same compound?
Its GI50 is 6.55 µM (inactive).

What about the GI50 [19] of the same compound?
The GI50 was 67.3 µM (inactive).

And the GI50 [20]?
Its GI50 is 17.2 µM (inactive).

With `CCN(CC)c1ccc2cc3ccc(N(CC)CC)cc3[o+]c2c1` as the compound, how does the GI50 [1] read?
The GI50 was 0.267 µM (active).

And the GI50 [2]?
Its GI50 is 2.56 µM (inactive).

What about the GI50 [3] of the same compound?
The GI50 was 0.29 µM (active).

And the GI50 [5]?
Its GI50 is 1.26 µM (inactive).

And the GI50 [6]?
Its GI50 is 0.832 µM (active).

What about the GI50 [7] of the same compound?
The GI50 was 6.08 µM (inactive).

What about the GI50 [8] of the same compound?
Its GI50 is 1.95 µM (inactive).

And the GI50 [9]?
The GI50 was 5.37 µM (inactive).

What about the GI50 [11] of the same compound?
Its GI50 is 7.8 µM (inactive).

And the GI50 [12]?
Its GI50 is 0.6 µM (active).

What about the GI50 [13] of the same compound?
The GI50 was 0.407 µM (active).

And the GI50 [14]?
Its GI50 is 6.52 µM (inactive).

And the GI50 [16]?
The GI50 was 0.687 µM (active).

What about the GI50 [17] of the same compound?
Its GI50 is 1.2 µM (inactive).

What about the GI50 [18] of the same compound?
Its GI50 is 0.0773 µM (active).

And the GI50 [19]?
Its GI50 is 6.82 µM (inactive).

And the GI50 [20]?
The GI50 was 0.8 µM (active).
